Assay results reported in US20260337177A1, “TEAD CORE INHIBITORS FOR CANCER THERAPEUTICS” (University of Florida Research Foundation, Incorporated, priority 2023, published 2026).

Assays:
Huh7 cells [1] = experiment: Apoptosis by calcein AM and ethidium homodimer-1 staining, Huh7; type: cell-based, human
NCI-H226 cells = experiment: NCI-H226 cell growth inhibition (CCK-8, 3 days); type: cell-based; conditions: Homo sapiens, NCI-H226, 72 h, NF2-deficient mesothelioma, read-out: Antiproliferative IC50, NCI-H226
Experimental: The inhibitory effects of compound 22 were assessed against YAP TEAD related NF2-deficient mesothelioma cell NCI-H226 and triple negative breast cancer cell Hs578T. The growth inhibition ratio was measured using a CCK-8 assay after 3 days of treatments.

HB tumors = experiment: Murine hepatoblastoma (HB) model, HDTV injection of S127A-YAP1 and ΔN90-β-catenin; type: in vivo, C57BL6 mice
Experimental: Using this model, the inhibitory effect of YAP inhibitor compound 22 on HB development was examined. In brief, following HDTV injection, the co-expression of constitutively active S127A-YAP1 and ΔN90 deletion-mutant β-catenin (ΔN90-β-catenin) via Sleeping Beauty-mediated somatic integration led to HB development in mouse livers. Plasmids carrying T3EF1α-YAPS127A (20 μg), pCMV-sleeping beauty transposase (SB, 0.8 μg), and pT3-EF1α-ΔN90-β-catenin (20 μg) were extracted using the Endotoxin-Free Maxiprep kit (Qiagen), diluted in 2 ml 0.9% sodium chloride solution, and injected via hydrodynamic tail vein injection (HDTV) into C57BL6 mice (6 week-old, body weight of 20 g). compound 22 or mock control (twice a week for three months, IP injection) were applied two weeks post the HDTV injection until two days before sacrifice. Low dose group received […] body weight and high dose group received […] body weight.
Tissues harvested from mice were fixed in 4% paraformaldehyde PBS solution for 24 hours, embedded in paraffin, and sectioned (6 μm). Standard staining protocols were performed for IHC using an ABC kit from Vector lab (Vector Laboratories, Inc., CA). The primary antibody was mouse anti-Ki67 antibody (catalogNCL-L-Ki67-MM1, 1:100 dilution) from Leica Biosystems (Deer Park, IL). Stained sections were detected using a microscope (Leica, Germany).
For drug assessment in the murine HB model, plasmids carrying T3EF1α-YAPS127A (20 μg), pCMV-sleeping beauty transposase (SB, 0.8 μg), and pT3-EF1α-ΔN90-β-catenin (20 μg) from Addgene (Watertown, MA) were used. The plasmids were extracted using the Endotoxin-Free Maxiprep kit (Qiagen, Redwood City, CA), diluted in 2 ml 0.9% sodium chloride solution, and injected via hydrodynamic tail vein injection (HDTV) into C57BL6 mice (n=15, 6 week old). Three weeks post the HDTV injection, compound 22 ([…] body weight) or mock control were applied twice a week for total 9 weeks via IP injection. Two days post last drug treatment, mice were euthanized and tumor tissues were subjected to molecular and histological characterizations.

TEAD2-YBD C380S = TEAD2-YBD C380S (Homo sapiens, UniProt Q15562, C380S); experiment: Intact protein mass spectrometry, TEAD2-YBD C380S variant; type: binding; conditions: 15 hours
From the text: To substantiate the covalent interaction between Compound 22 and TEAD2-YBD, intact mass spectrometry was employed to monitor the protein's mass change upon binding with the compound.
Human TEAD2-YBD (217-447) (TEAD2_HUMAN, UniProtKB Q15562) was expressed and purified as previously described.^79 To eliminate endogenous palmitoylation, Cys380Ser mutant (TEAD2-C380S) was generated and purified using the same protocol. [00392]hTEAD2 was expressed, purified, and deacylated as reported.^52 Briefly, the yap-binding domain (YBD) of […] was cloned in pET28a vector with the N terminal 6x His tag. The recombinant protein was induced at 16 ° C using 0.2 mM isopropyl bD-1-thiogalactopyranoside (IPTG) for 10 h for overexpression in Escherichia coli strain BL2 (DE3) CodonPlus competent cells (Invitrogen). Then cells were harvested, followed by lysis and the supernatant was loaded onto the HisTrap FF column (GE Healthcare). The hTEAD4-YBD was eluted with elution buffer (50 mM Hepes 8.0, 300 mM NaCl, 10% Glycerol, 1 mM TCEP, 125 mM imidazole). To eliminate the endogenous fatty acid, the protein was incubated with 0.2 mM hydroxylamine for 2 h and further purified through gel filtration chromatography in the final buffer (25 mM Hepes pH 8.0, 100 mM NaCl, 1 mM TCEP, and 5% glycerol). Collected fractions were concentrated to 5 mg/mL and flash frozen for further use. […]

Huh7 cells [2] = experiment: Cell cycle analysis by flow cytometry, Huh7; type: cell-based, human; conditions: 5 and 10 μM, 48 hours
Experimental: To study the potential mechanistic pathways responsible for cell proliferation inhibition by compound 22, the change of cell cycle in Huh7 and HepG2 liver cancer cell lines was evaluated. DNA-based cell cycle analysis was performed using flow cytometry. […] To explore whether compound 22 also induces G1 phase arrest in HepG2 cells similar to its effects on Huh7 cells, parallel investigations were performed. […] However, the impact of 22 on inducing G1 phase arrest was less pronounced in HepG2 cells compared to Huh7 cells.
For cell cycle analysis, cells were fixed with pre-cold 70% ethanol for 30 minutes. Then the cells were washed with PBS and stained with propidium iodide working solution for 30 minutes in the dark. The stained cells were analyzed by flow cytometry. Cell cycle distribution was analyzed using FlowJo_V10 software. For each experiment, 20000 events per sample were recorded. Percentages of cells in G0/G1, S and G2/M phases were calculated and shown in DNA histograms.

TEAD2-YBD C380S, sequence (Q15562 217-447 C380S): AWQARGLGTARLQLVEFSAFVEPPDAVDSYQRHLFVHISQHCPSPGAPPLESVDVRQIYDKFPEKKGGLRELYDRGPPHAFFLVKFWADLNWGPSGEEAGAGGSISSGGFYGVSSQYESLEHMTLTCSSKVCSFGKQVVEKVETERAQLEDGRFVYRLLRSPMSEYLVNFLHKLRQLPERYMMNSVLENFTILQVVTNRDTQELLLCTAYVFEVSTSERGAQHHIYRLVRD

O=C(CCl)c1c[nH]c2cc(Cl)c(OCc3cccc(C(F)(F)F)c3)cc12 [Compound 22, 2-chloro-1-(6-chloro-5-((3-(trifluoromethyl)benzyl)oxy)-1H-indol-3-yl)ethan-1-one]
Huh7 cell apoptosis (Huh7 cells [1]): promotes Huh7 cell apoptosis | IC50 (NCI-H226 cells): 0.4 µM | HB tumors, occurrence and size (HB tumors; 25 mg/kg body weight, twice a week for 9 weeks, IP): notable reduction in both the occurrence and size of HB tumors | Number of proliferating cells (IHC) (HB tumors; 25 mg/kg, Cyclin D1 / Ki67 (FIG. 23B)): decreased number of proliferating cells | Ccnd1, CTGF, Cyr61, Afp, and Gpc3 mRNAs in livers (HB tumors; real time qRT-PCR, 25 mg/kg): lower levels | CTGF and Cyr61 proteins in livers (HB tumors; western blotting, 25 mg/kg): decreased CTGF and Cyr61 | Mass shift of TEAD2-YBD C380S variant (TEAD2-YBD C380S): absence of a mass shift | Percentage of cells in G1 phase, Huh7 (Huh7 cells [2]; control group 36.4%): 58.2% | Proportion of cells in S/G2 phases, Huh7 (Huh7 cells [2]): distinct decrease
